Measurements: PubChem BioAssay (NCI)
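Dose response: 5 concentrations. Exposure: 48 h. Format: 96-well plates. Endpoint: linear interpolation; highest concentration if not reached. TGI denotes the concentration required for complete inhibition of growth.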

Experiments:
Assay in all cases: growth of human tumour cells (NCI), 48 h
[1] = tested on: MALME-3M melanoma
[2] = tested on: SK-MEL-28 melanoma
[3] = tested on: NCI-H226 lung
[4] = tested on: SK-MEL-5 melanoma
[5] = tested on: OVCAR-3 ovarian
[6] = tested on: SK-MEL-2 melanoma
[7] = tested on: RXF 393 renal
[8] = tested on: OVCAR-8 ovarian
[9] = tested on: HL-60(TB) leukemia
[10] = tested on: UACC-62 melanoma
[11] = tested on: U251 CNS
[12] = tested on: LXFL 529 NSCLC
[13] = tested on: SF-539 CNS
[14] = tested on: RXF-631 renal
[15] = tested on: UO-31 renal
[16] = tested on: SNB-75 CNS
[17] = tested on: HOP-62 NSCLC
[18] = tested on: CCRF-CEM leukemia
[19] = tested on: HCC-2998 colon
[20] = tested on: HT29 colon
[21] = tested on: NCI-H23 lung
[22] = tested on: COLO 205 colon
[23] = tested on: RPMI-8226 leukemia
[24] = tested on: UACC-257 melanoma
[25] = tested on: DLD-1 colon
[26] = tested on: SK-OV-3 ovarian
[27] = tested on: HCT-116 colon
[28] = tested on: SF-268 CNS
[29] = tested on: SNB-19 CNS
[30] = tested on: TK-10 renal
[31] = tested on: DMS 114 small cell lung
[32] = tested on: LOX IMVI melanoma
[33] = tested on: KM20L2 colon
[34] = tested on: MOLT-4 leukemia
[35] = tested on: A549 NSCLC
[36] = tested on: SW-620 colon
[37] = tested on: EKVX NSCLC
[38] = tested on: HCT-15 colon
[39] = tested on: 786-0 renal
[40] = tested on: DMS 273 small cell lung
[41] = tested on: XF 498 CNS
[42] = tested on: K-562 leukemia
[43] = tested on: M14 melanoma
[44] = tested on: M19-MEL melanoma
[45] = tested on: SNB-78 CNS
[46] = tested on: IGROV1 ovarian
[47] = tested on: A498 renal
[48] = tested on: NCI-H522 lung
[49] = tested on: KM12 colon
[50] = tested on: SF-295 CNS
[51] = tested on: NCI-H460 lung
[52] = tested on: CAKI-1 renal
[53] = tested on: SN12C renal
[54] = tested on: ACHN renal
[55] = tested on: HOP-92 NSCLC
[56] = tested on: OVCAR-4 ovarian
[57] = tested on: SR leukemia
[58] = tested on: HOP-18 NSCLC
[59] = tested on: OVCAR-5 ovarian

Measured: TGI

Cn1c(=O)c(NC(=O)C(Cl)(Cl)Cl)nc2ccccc21
not listed: [54] | [55] | [56] | [57] | [58] | [59]
> 100 µM: all other assays above

Cc1noc2c1C(=O)CCC2
not listed: [4] | [11] | [14] | [17] | [19] | [21] | [29] | [35] | [38] | [40] | [46] | [47] | [49] | [50] | [51]
> 100 µM: all other assays above
